Source: patent publication US10961231B2, “NTCP inhibitors” (National Institute of Biological Sciences, Beijing, priority 2018, dated 2021)

Target: T1, NTCP (Homo sapiens, UniProt Q14973)
T1 sequence (Q14973 1-349): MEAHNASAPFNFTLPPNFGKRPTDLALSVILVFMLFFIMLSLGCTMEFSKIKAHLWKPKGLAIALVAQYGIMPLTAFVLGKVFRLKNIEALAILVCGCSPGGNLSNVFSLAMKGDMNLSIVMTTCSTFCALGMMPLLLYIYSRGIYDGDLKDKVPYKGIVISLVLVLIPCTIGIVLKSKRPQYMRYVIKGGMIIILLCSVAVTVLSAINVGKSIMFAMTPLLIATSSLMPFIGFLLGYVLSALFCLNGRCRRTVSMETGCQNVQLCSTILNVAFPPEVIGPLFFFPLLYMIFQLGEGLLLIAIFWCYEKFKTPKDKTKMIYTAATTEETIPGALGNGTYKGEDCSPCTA
Assay: [3H]-TCA uptake assay (NTCP inhibition)
Assay type: cell-based
Conditions: IC50, given as a range, marked * (asterisk not explained)
Experimental: [^3H]-TCA uptake assay. PTH and HepG2-NTCP cells were cultured in PMM for 24 hours to induce NTCP expression. After treated by DMSO or test compounds for 2 hours, the cells were then incubated with 1 μM [^3H]-taurocholate acid dissolved in Na^+ Ringer's buffer (the concentration of Na was 145 mM) for 15 minutes at 37° C. Subsequently, the cells were washed once in phosphate-buffered saline (PBS) and lysed in 50 μL 1% TritonX-100 in H2O for 5 minutes at room temperature. The lysate were totally transferred into a liquid scintillation 96 well plate and mixed with 200 μL liquid scintillation cocktail (Ultima Gold XR, PerkinElmer). Liquid scintillation counting was performed on a PerkinElmer 1450 LSC liquid scintillation counter.

Row | Compound | IC50 [nM]
1 | CCC1NC(=O)C(C2OC(Oc3ccc(N4CCOCC4)cc3)CC2C)N(C)C(=O)C(C(C)C)N(C)C(=O)C(CC(C)C)N(C)C(=O)C(CC(C)C)N(C)C(=O)C(C)NC(=O)C(C)NC(=O)C(CC(C)C)N(C)C(=O)C(C(C)C)NC(=O)C(CC(C)C)N(C)C(=O)CN(C)C1=O (stereo not drawn) [Compound 3A-o] | 1000 to 100000
2 | CCC1NC(=O)C(C2OC(Oc3ccc(NC(C)=O)cc3)CC2C)N(C)C(=O)C(C(C)C)N(C)C(=O)C(CC(C)C)N(C)C(=O)C(CC(C)C)N(C)C(=O)C(C)NC(=O)C(C)NC(=O)C(CC(C)C)N(C)C(=O)C(C(C)C)NC(=O)C(CC(C)C)N(C)C(=O)CN(C)C1=O (stereo not drawn) [Compound 4A-o] | 1000 to 100000
3 | CCC1NC(=O)C(C2OC(Oc3ccc(OS(C)(=O)=O)cc3)CC2C)N(C)C(=O)C(C(C)C)N(C)C(=O)C(CC(C)C)N(C)C(=O)C(CC(C)C)N(C)C(=O)C(C)NC(=O)C(C)NC(=O)C(CC(C)C)N(C)C(=O)C(C(C)C)NC(=O)C(CC(C)C)N(C)C(=O)CN(C)C1=O (stereo not drawn) [Compound 5A-o] | 1000 to 100000
4 | CCC1NC(=O)C(C2OC(Oc3ccc(N4CCN(C)CC4)cc3)CC2C)N(C)C(=O)C(C(C)C)N(C)C(=O)C(CC(C)C)N(C)C(=O)C(CC(C)C)N(C)C(=O)C(C)NC(=O)C(C)NC(=O)C(CC(C)C)N(C)C(=O)C(C(C)C)NC(=O)C(CC(C)C)N(C)C(=O)CN(C)C1=O (stereo not drawn) [Compound 6A-o] | 1000 to 100000
5 | CCC1NC(=O)C(C2OC(Oc3ccc(CN4CCN(C)CC4)cc3)CC2C)N(C)C(=O)C(C(C)C)N(C)C(=O)C(CC(C)C)N(C)C(=O)C(CC(C)C)N(C)C(=O)C(C)NC(=O)C(C)NC(=O)C(CC(C)C)N(C)C(=O)C(C(C)C)NC(=O)C(CC(C)C)N(C)C(=O)CN(C)C1=O (stereo not drawn) [Compound 7A-o] | 1000 to 100000
6 | CCCCc1ccc(OC2CC(C)C(C3C(=O)NC(CC)C(=O)N(C)CC(=O)N(C)C(CC(C)C)C(=O)NC(C(C)C)C(=O)N(C)C(CC(C)C)C(=O)NC(C)C(=O)NC(C)C(=O)N(C)C(CC(C)C)C(=O)N(C)C(CC(C)C)C(=O)N(C)C(C(C)C)C(=O)N3C)O2)cc1 (stereo not drawn) [Compound 8A-o] | 1000 to 100000
7 | CCC1NC(=O)C(C2OC(Oc3ccc(C4CCCCC4)cc3)CC2C)N(C)C(=O)C(C(C)C)N(C)C(=O)C(CC(C)C)N(C)C(=O)C(CC(C)C)N(C)C(=O)C(C)NC(=O)C(C)NC(=O)C(CC(C)C)N(C)C(=O)C(C(C)C)NC(=O)C(CC(C)C)N(C)C(=O)CN(C)C1=O (stereo not drawn) [Compound 9A-o] | 1000 to 100000
8 | CCC1NC(=O)C(C2OC(Oc3ccc(SCCCS(=O)(=O)O)cc3)CC2C)N(C)C(=O)C(C(C)C)N(C)C(=O)C(CC(C)C)N(C)C(=O)C(CC(C)C)N(C)C(=O)C(C)NC(=O)C(C)NC(=O)C(CC(C)C)N(C)C(=O)C(C(C)C)NC(=O)C(CC(C)C)N(C)C(=O)CN(C)C1=O (stereo not drawn) [Compound 10A-o] | 1000 to 100000

Same assay, conditions: IC50, given as a range; assay not given

Row | Compound | IC50 [nM]
9 | CCC1NC(=O)C(C2OC(Sc3ccc(NC(C)=O)cc3)CC2C)N(C)C(=O)C(C(C)C)N(C)C(=O)C(CC(C)C)N(C)C(=O)C(CC(C)C)N(C)C(=O)C(C)NC(=O)C(C)NC(=O)C(CC(C)C)N(C)C(=O)C(C(C)C)NC(=O)C(CC(C)C)N(C)C(=O)CN(C)C1=O [Compound 4A, [2-((2R,3R)-5-(4-acetamidophenylthio)-3-methyltetrahydrofuran-2-yl)-2-(methylamino)acetic acid]^1-cyclosporin A] | 1000 to 10000
10 | CCC1NC(=O)C(C2OC(Sc3ccc(OS(C)(=O)=O)cc3)CC2C)N(C)C(=O)C(C(C)C)N(C)C(=O)C(CC(C)C)N(C)C(=O)C(CC(C)C)N(C)C(=O)C(C)NC(=O)C(C)NC(=O)C(CC(C)C)N(C)C(=O)C(C(C)C)NC(=O)C(CC(C)C)N(C)C(=O)CN(C)C1=O [Compound 5A, [2-((2R,3R)-3-methyl-5-(4-(methylsulfonyloxy)phenylthio)tetrahydrofuran-2-yl)-2-(methylamino)acetic acid]^1-cyclosporin A] | 1000 to 10000
11 | CCC1NC(=O)C(C2OC(Sc3ccc(CN4CCN(C)CC4)cc3)CC2C)N(C)C(=O)C(C(C)C)N(C)C(=O)C(CC(C)C)N(C)C(=O)C(CC(C)C)N(C)C(=O)C(C)NC(=O)C(C)NC(=O)C(CC(C)C)N(C)C(=O)C(C(C)C)NC(=O)C(CC(C)C)N(C)C(=O)CN(C)C1=O [Compound 7A, [2-((2R,3R)-3-methyl-5-(4-((4-methylpiperazin-1-yl)methyl)phenylthio)tetrahydrofuran-2-yl)-2-(methylamino)acetic acid]^1-cyclosporin A] | 1000 to 10000

Same assay, conditions: given as a range, marked * (asterisk not explained)

Row | Compound | IC50 [nM]
12 | CCC1NC(=O)C(C2OC(Oc3cc(OCCOC)cc(OCc4ccccc4)c3)CC2C)N(C)C(=O)C(C(C)C)N(C)C(=O)C(CC(C)C)N(C)C(=O)C(CC(C)C)N(C)C(=O)C(C)NC(=O)C(C)NC(=O)C(CC(C)C)N(C)C(=O)C(C(C)C)NC(=O)C(CC(C)C)N(C)C(=O)CN(C)C1=O (stereo not drawn) [Compound 11-0] | 1000 to 100000
13 | CCC1NC(=O)C(C2OC(Sc3cc(OCCOC)cc(OCc4ccccc4)c3)CC2C)N(C)C(=O)C(C(C)C)N(C)C(=O)C(CC(C)C)N(C)C(=O)C(CC(C)C)N(C)C(=O)C(C)NC(=O)C(C)NC(=O)C(CC(C)C)N(C)C(=O)C(C(C)C)NC(=O)C(CC(C)C)N(C)C(=O)CN(C)C1=O (stereo not drawn) [Compound 11] | 1000 to 100000

Same assay, conditions: given as a range; assay not given

Row | Compound | IC50 [nM]
14 | CCC1NC(=O)C(C2OC(Sc3ccc(N4CCOCC4)cc3)CC2C)N(C)C(=O)C(C(C)C)N(C)C(=O)C(CC(C)C)N(C)C(=O)C(CC(C)C)N(C)C(=O)C(C)NC(=O)C(C)NC(=O)C(CC(C)C)N(C)C(=O)C(C(C)C)NC(=O)C(CC(C)C)N(C)C(=O)CN(C)C1=O [Compound 3A, [2-((2R,3R)-3-methyl-5-(4-morpholinophenylthio)tetrahydrofuran-2-yl)-2-(methylamino)acetic acid]^1-cyclosporin A] | 1 to 1000
15 | CCC1NC(=O)C(C2OC(Sc3ccc(N4CCN(C)CC4)cc3)CC2C)N(C)C(=O)C(C(C)C)N(C)C(=O)C(CC(C)C)N(C)C(=O)C(CC(C)C)N(C)C(=O)C(C)NC(=O)C(C)NC(=O)C(CC(C)C)N(C)C(=O)C(C(C)C)NC(=O)C(CC(C)C)N(C)C(=O)CN(C)C1=O [Compound 6A, [2-((2R,3R)-3-methyl-5-(4-(4-methylpiperazin-1-yl)phenylthio)tetrahydrofuran-2-yl)-2-(methylamino)acetic acid]^1-cyclosporin A] | 1 to 1000
16 | CCCCc1ccc(SC2CC(C)C(C3C(=O)NC(CC)C(=O)N(C)CC(=O)N(C)C(CC(C)C)C(=O)NC(C(C)C)C(=O)N(C)C(CC(C)C)C(=O)NC(C)C(=O)NC(C)C(=O)N(C)C(CC(C)C)C(=O)N(C)C(CC(C)C)C(=O)N(C)C(C(C)C)C(=O)N3C)O2)cc1 [Compound 8A, [2-((2R,3R)-5-(4-butylphenylthio)-3-methyltetrahydrofuran-2-yl)-2-(methylamino)acetic acid]^1-cyclosporin A] | 1 to 1000
17 | CCC1NC(=O)C(C2OC(Sc3ccc(C4CCCCC4)cc3)CC2C)N(C)C(=O)C(C(C)C)N(C)C(=O)C(CC(C)C)N(C)C(=O)C(CC(C)C)N(C)C(=O)C(C)NC(=O)C(C)NC(=O)C(CC(C)C)N(C)C(=O)C(C(C)C)NC(=O)C(CC(C)C)N(C)C(=O)CN(C)C1=O [Compound 9A, [2-((2R,3R)-5-(4-cyclohexylphenylthio)-3-methyltetrahydrofuran-2-yl)-2-(methylamino)acetic acid]^1-cyclosporin A] | 1000 to 1e+06
18 | CCC1NC(=O)C(C2OC(Sc3ccc(SCCCS(=O)(=O)O)cc3)CC2C)N(C)C(=O)C(C(C)C)N(C)C(=O)C(CC(C)C)N(C)C(=O)C(CC(C)C)N(C)C(=O)C(C)NC(=O)C(C)NC(=O)C(CC(C)C)N(C)C(=O)C(C(C)C)NC(=O)C(CC(C)C)N(C)C(=O)CN(C)C1=O [Compound 10A, [2-((2R,3R)-3-methyl-5-(4-(3-sulfopropylthio)phenylthio)tetrahydrofuran-2-yl)-2-(methylamino)acetic acid]^1-cyclosporin A] | 1000 to 1e+06
